Measured values: ChEMBL document CHEMBL6178021, “Optimization of Tambjamines Active against Multiple Stages of Malaria Parasites” (J Med Chem, 2025)
Converted amounts (≈) assume the structure as drawn.

Columns and labels:
Plasmodium yoelii [1] = assay: Antimalarial activity against erythrocytic Plasmodium yoelii MRA-428 infected in CF1 mouse assessed as cured mouse at 25 mg/kg, po once daily for 4 days measured on day 28 day; assay type: functional, organism-based; conditions: time 4.0 day
[2] = Solubility of the compound in potassium phosphate buffer at pH 7.4 by UV-vis spectroscopy; conditions: buffer
Plasmodium yoelii [3] = assay: Antimalarial activity against erythrocytic Plasmodium yoelii MRA-428 infected in CF1 mouse assessed as cured mouse at 50 mg/kg, po once daily for 4 days measured on day 28 day; assay type: functional, organism-based; conditions: time 4.0 day
Plasmodium yoelii [4] = assay: Antimalarial activity against erythrocytic Plasmodium yoelii MRA-428 infected in CF1 mouse assessed as reduction in parasitemia at 25 mg/kg, po once daily for 4 days measured on day 5; assay type: functional; set-up: scale not given: the % may be the effect or the level left; conditions: time 4 day
Plasmodium yoelii [5] = assay: Antimalarial activity against erythrocytic Plasmodium yoelii MRA-428 infected in CF1 mouse assessed as reduction in parasitemia at 50 mg/kg, po once daily for 4 days measured on day 5; assay type: functional; set-up: scale not given: the % may be the effect or the level left; conditions: time 4 day
in vitro [6] = conditions: mouse, liver microsomes
Plasmodium falciparum [7] = assay: Antiplasmodial activity against asexual blood-stage Plasmodium falciparum Tm90-C2B using 2% haematocrit and 0.2% parasitemia assessed as reduction in fluorescence measured after 72 hrs by Malaria SYBR Green I-based Fluorescence (MSF) assay; assay type: functional, organism-based
in vitro [8] = conditions: human
Description: Selectivity index, ratio of IC50 for cytotoxicity against human HepG2 cells to IC50 for antiplasmodial activity against asexual blood-stage Plasmodium falciparum D6

[9] = Metabolic stability in human liver microsomes assessed as half life measured up to 60 mins by LC/MS analysis; assay type: ADME, Microsome
MDR1 (human) [10] = assay: Apparent permeability across apical to basolateral side in MDCK transfected with human MDR1 cells incubated for 1 hr by LC-MS analysis; conditions: dog, MDCK-MDR1
MDR1 (human) [11] = assay: Efflux ratio, ratio of apparent permeability across apical to basolateral side over basolateral to apical side in MDCK transfected with human MDR1 cells incubated for 1 hr by LC-MS analysis; conditions: dog
HepG2 = assay: Cytotoxicity against human HepG2 cells assessed as cell viability measured after 48 hrs by MTT assay; assay type: toxicity, cell-based; conditions: hepg2
Plasmodium yoelii [12] = assay: Antimalarial activity against erythrocytic Plasmodium yoelii MRA-428 infected in CF1 mouse assessed as reduction in parasitemia at 10 mg/kg, po once daily for 4 days measured on day 5; assay type: functional; set-up: scale not given: the % may be the effect or the level left; conditions: time 4 day
Plasmodium falciparum [13] = assay: microbe, parasite or virus in culture; conditions: D6, 72 h
Description: Antiplasmodial activity against asexual blood-stage Plasmodium falciparum D6 using 2% haematocrit and 0.2% parasitemia assessed as reduction in fluorescence measured after 72 hrs by Malaria SYBR Green I-based Fluorescence (MSF) assay

[14] = Metabolic stability in mouse liver microsomes assessed as half life measured up to 60 mins by LC/MS analysis; assay type: ADME, Microsome
Plasmodium falciparum [15] = assay: microbe, parasite or virus in culture; conditions: Dd2, 72 h
Description: Antiplasmodial activity against asexual blood-stage Plasmodium falciparum Dd2 using 2% haematocrit and 0.2% parasitemia assessed as reduction in fluorescence measured after 72 hrs by Malaria SYBR Green I-based Fluorescence (MSF) assay

in vitro [16] = conditions: human, liver microsomes
MDR1 (human) [17] = assay: Apparent permeability across basolateral to apical side in MDCK transfected with human MDR1 cells incubated for 1 hr by LC-MS analysis; conditions: dog, MDCK-MDR1
Plasmodium yoelii [18] = assay: Antimalarial activity against erythrocytic Plasmodium yoelii MRA-428 infected in CF1 mouse assessed as reduction in parasitemia at 80 mg/kg, po once daily for 4 days measured on day 5; assay type: functional; set-up: scale not given: the % may be the effect or the level left; conditions: time 4 day
Plasmodium yoelii [19] = assay: Antimalarial activity against erythrocytic Plasmodium yoelii MRA-428 infected in CF1 mouse assessed as cured mouse at 80 mg/kg, po once daily for 4 days measured on day 28 day; assay type: functional, organism-based; conditions: time 4.0 day

Row | SMILES | Activity (Plasmodium yoelii [1]) | solubility [2] | Activity (Plasmodium yoelii [3]) | Activity (Plasmodium yoelii [4]) | Activity (Plasmodium yoelii [5]) | microsomal CLint at 1 h (in vitro [6]) | IC50 (Plasmodium falciparum [7]) | selectivity ratio (in vitro [8]) | half-life [9] | Papp A→B at 1 h (MDR1 (human) [10]) | efflux ratio at 1 h (MDR1 (human) [11]) | IC50 (HepG2) | Activity (Plasmodium yoelii [12]) | IC50 (Plasmodium falciparum [13]) | half-life [14] | IC50 (Plasmodium falciparum [15]) | microsomal CLint at 1 h (in vitro [16]) | Papp B→A at 1 h (MDR1 (human) [17]) | Activity (Plasmodium yoelii [18]) | Activity (Plasmodium yoelii [19])
1 | CCC1=C(CC)/C(=C/NC23C[C@H]4C[C@@H](C2)C[C@@H](C3)C4)N=C1c1ccc(CC)[nH]1 | Not active; None Of The Mouse Cured Out Of Four Tested | 10.3 µM (≈ 3.89 µg/mL) | Not active; None Of The Mouse Cured Out Of Four Tested | 100% | 100% | 27.5 µL/min/mg | 0.984 nM | 1580 | > 60 min | 31 ×10⁻⁶ cm/s | 0.71 | 1500 nM | 53% | 0.95 nM | 50.3 min | 1.16 nM | 18.5 µL/min/mg | 22 ×10⁻⁶ cm/s | – | –
2 | CCc1ccc(C2=N/C(=C\NC3CCCCCC3)C(C)=C2C)[nH]1 | – | 93.1 µM (≈ 29 µg/mL) | – | 94.1% | 100% | 4.36 µL/min/mg | 1.55 nM | – | > 60 min | – | – | – | 42.8% | 2.1 nM | > 60 min | 1.32 nM | 6.78 µL/min/mg | 0.035 ×10⁻⁶ cm/s | 100% | Not active; None Of The Mouse Cured Out Of Four Tested
3 | CCC1=C(C)/C(=C/NC2CCCCC2)N=C1c1ccc(CC)[nH]1 | Not active; None Of The Mouse Cured Out Of Four Tested | 23 µM (≈ 7.16 µg/mL) | Not active; None Of The Mouse Cured Out Of Four Tested | 100% | 100% | 13.1 µL/min/mg | 13.3 nM | – | 34.3 min | 0.46 ×10⁻⁶ cm/s | – | 6010 nM | 45.7% | 33.8 nM | > 60 min | 14.9 nM | 40.4 µL/min/mg | 0.23 ×10⁻⁶ cm/s | 100% | Active; Four Mouse Cured Out Of Four
4 | CCC1=C(C)/C(=C/NC2CCCCCC2)N=C1c1ccc(CC)[nH]1 | Not active; None Of The Mouse Cured Out Of Four Tested | 12.5 µM (≈ 4.07 µg/mL) | Not active; None Of The Mouse Cured Out Of Four Tested | 100% | 100% | 22 µL/min/mg | 7.5 nM | – | 39.6 min | 0.036 ×10⁻⁶ cm/s | – | 4230 nM | 43.8% | 8.4 nM | > 60 min | 10.8 nM | 35.1 µL/min/mg | 0.037 ×10⁻⁶ cm/s | 100% | Active; Four Mouse Cured Out Of Four
5 | CCC1=C(C)/C(=C/NC2CCCCCCC2)N=C1c1ccc(C)[nH]1 | Not active; None Of The Mouse Cured Out Of Four Tested | 19.9 µM (≈ 6.48 µg/mL) | Not active; None Of The Mouse Cured Out Of Four Tested | 100% | 100% | 0.47 µL/min/mg | 4.59 nM | – | 45.4 min | 0.063 ×10⁻⁶ cm/s | – | 3510 nM | 96.5% | 6.59 nM | > 60 min | 3.43 nM | 30.5 µL/min/mg | 0.04 ×10⁻⁶ cm/s | 100% | Active; Three Mouse Cured Out Of Four
6 | CCC1=C(CC)/C(=C/N[C@H]2CC[C@H](C(F)(F)F)CC2)N=C1c1ccc[nH]1 | Not active; None Of The Mouse Cured Out Of Four Tested | 314 µM (≈ 115 µg/mL) | Not active; None Of The Mouse Cured Out Of Four Tested | 100% | 100% | 25.9 µL/min/mg | 169 nM | 125 | 22.5 min | 1.4 ×10⁻⁶ cm/s | 0.43 | 24500 nM | 95.7% | 196 nM | 53.6 min | 111 nM | 61.6 µL/min/mg | 0.6 ×10⁻⁶ cm/s | – | –
7 | CCC1=C(CC)/C(=C/NC2CCCCCCC2)N=C1c1ccc(C)[nH]1 | Active; Four Mouse Cured Out Of Four | < 3.125 µM | – | 100% | – | 16.8 µL/min/mg | 4.95 nM | – | > 60 min | 0.006 ×10⁻⁶ cm/s | – | 3190 nM | 68.5% | 10.6 nM | > 60 min | 5.75 nM | 20.6 µL/min/mg | 0.066 ×10⁻⁶ cm/s | 100% | Not active; None Of The Mouse Cured Out Of Four Tested
8 | CCC1=C(C)/C(=C/NC2CCCCCC2)N=C1c1ccc(C)[nH]1 | Not active; None Of The Mouse Cured Out Of Four Tested | 25.7 µM (≈ 8 µg/mL) | Not active; None Of The Mouse Cured Out Of Four Tested | 100% | 100% | 8.16 µL/min/mg | 23.4 nM | – | 48.9 min | – | – | 6120 nM | 55.3% | 29.5 nM | > 60 min | 18.6 nM | 28.3 µL/min/mg | – | 100% | Active; Three Mouse Cured Out Of Four
9 | CCC1=C(CC)/C(=C/NC2CCCCC2)N=C1c1ccc(CC)[nH]1 | Active; Two Mouse Cured Out Of Four | 31.3 µM (≈ 10.2 µg/mL) | Not active; None Of The Mouse Cured Out Of Four Tested | 100% | 100% | 14.8 µL/min/mg | 7.09 nM | – | > 60 min | 0.002 ×10⁻⁶ cm/s | – | 5170 nM | 98.9% | 9.03 nM | > 60 min | 4.34 nM | 17 µL/min/mg | 0.091 ×10⁻⁶ cm/s | 100% | Active; Two Mouse Cured Out Of Four
